Patent US20250170140A1, “PHARMACEUTICAL COMPOSITION FOR PREVENTING OR TREATING CANCER COMPRISING CARNITINE ACYLCARNITINE CARRIER INHIBITOR AND PEROXISOMAL BETA OXIDATION INHIBITOR” (priority 2021, published 2025)

Test system: MIA PaCa-2
Assay: SRB assay, cancer cell growth, pancreatic cancer cell line MIA PaCa-2
Type: cell-based
Details: MIA PaCa-2
Procedure: As a comparison, omeprazole (KN510) and trimetazidine (KN713), a 3-ketoacyl CoA thiolase inhibitor, were co-treated. […] After cell inoculation, 96-well cell culture plates were incubated for 24 hours before the addition of experimental drugs. […] The cells were then incubated in a CO2 incubator for 48 hours, after which the assay was terminated by the addition of cold TCA. Cells were fixed in situ by gently adding 50 μl of cold 50% (w/v) TCA (final concentration: 10% TCA) and incubated at 4° C. for 60 min. The supernatant was discarded, and the plate was washed five times with distilled water and air dried. Sulforhodamine B (SRB) solution (100 μl) of 0.4% (w/v) in 1% acetic acid was added to each well, and the plate was left at room temperature for 10 min. After staining, unbound dye was removed by washing five times with 1% acetic acid, and the plate was air-dried. The bound dye was then solubilized with 10 mM trizma base, and the absorbance was recorded at 515 nm using an automated plate reader. […] The predicted synergistic activity of a combination of the present invention can be calculated using the Colby Equation in Equation 1 (S.R. Colby, Weeds, 1967, pp. 15, 20-22): α and β are the measured anti-cancer activity of each compound alone, and E is the predicted anti-cancer activity of a mixture of α and β as a prediction. In the present invention, the actual measure of anti-cancer activity of the combination treatment was the inhibition rate of cancer cell growth (%), and the predicted value (E) of the combination treatment was measured by substituting it into the above Colby Equation.

## COc1ccc(CN2CCNCC2)c(OC)c1OC [KN713, trimetazidine]
Homo sapiens, 48 hours, read-out: GI50 (Half maximal growth inhibition concentration)
  GI50: 1.81 mM
Conc. 10^−2M, Table 1
  Cancer cell growth rate Average (%): −29.68%
Conc. 10^−3M, Table 1
  Cancer cell growth rate Average (%): 95.03%
Conc. 10^−4M, Table 1
  Cancer cell growth rate Average (%): 95.50%
Conc. 10^−5M, Table 1
  Cancer cell growth rate Average (%): 94.52%
Conc. 10^−6M, Table 1
  Cancer cell growth rate Average (%): 97.75%
Conc. 10^−7M, Table 1
  Cancer cell growth rate Average (%): 97.85%
Comparative example, Table 3, KN713 2.5 mM
  Cancer cell growth rate Average (%): 88.90%
